The source of these data is ChEMBL document CHEMBL1137099, “Synthesis of novel rhinacanthins and related anticancer naphthoquinone esters” (J Med Chem, 2004).

This assay has as its system KB. Description: Concentration required to inhibit growth of human epidermoid carcinoma (KB) cell line; IA= Inactive. It is filed as functional, cell-based.

With `COC1C=C(C(=O)O)C(OC)c2ccccc21` (stereo not given), the IC50 entry is recorded as “Not Active”. As for `O=C(O)C1=CCc2ccccc2C1O` (stereo not given), the IC50 result was “Not Active”. In the case of `COC1C(C(=O)O)=CCc2ccccc21` (stereo not given), the IC50 result was “Not Active”. In the case of `O=C(O)C1=CCc2ccccc2C1`, the IC50 result is recorded as “Not Active”.

Turning to `O=C1C(O)=C(CCCO)C(=O)c2ccccc21`, the IC50 result is reported as “Not Active”.
